According to patent publication US8937065B2, “Compositions and methods for modulating a kinase” (Clevexel Pharma, priority 2011, dated 2015):
Values after ≈ are worked out from the molar mass of the structure shown.

Assays:
JAK3 = biological target: T1, JAK3 (Homo sapiens, UniProt P52333); test: JAK3 enzymatic activity assay (Z'-LYTE Biochemical Kinase Assay, 2 hr preincubation at 4° C.); settings: cell free, 1% DMSO, read-out: JAK3 activity cell free (2 hr preincubation at (4° C.) Kj)
T1 construct: purchased Invitrogen, Madison, Wis
T1 sequence (P52333 1-1124): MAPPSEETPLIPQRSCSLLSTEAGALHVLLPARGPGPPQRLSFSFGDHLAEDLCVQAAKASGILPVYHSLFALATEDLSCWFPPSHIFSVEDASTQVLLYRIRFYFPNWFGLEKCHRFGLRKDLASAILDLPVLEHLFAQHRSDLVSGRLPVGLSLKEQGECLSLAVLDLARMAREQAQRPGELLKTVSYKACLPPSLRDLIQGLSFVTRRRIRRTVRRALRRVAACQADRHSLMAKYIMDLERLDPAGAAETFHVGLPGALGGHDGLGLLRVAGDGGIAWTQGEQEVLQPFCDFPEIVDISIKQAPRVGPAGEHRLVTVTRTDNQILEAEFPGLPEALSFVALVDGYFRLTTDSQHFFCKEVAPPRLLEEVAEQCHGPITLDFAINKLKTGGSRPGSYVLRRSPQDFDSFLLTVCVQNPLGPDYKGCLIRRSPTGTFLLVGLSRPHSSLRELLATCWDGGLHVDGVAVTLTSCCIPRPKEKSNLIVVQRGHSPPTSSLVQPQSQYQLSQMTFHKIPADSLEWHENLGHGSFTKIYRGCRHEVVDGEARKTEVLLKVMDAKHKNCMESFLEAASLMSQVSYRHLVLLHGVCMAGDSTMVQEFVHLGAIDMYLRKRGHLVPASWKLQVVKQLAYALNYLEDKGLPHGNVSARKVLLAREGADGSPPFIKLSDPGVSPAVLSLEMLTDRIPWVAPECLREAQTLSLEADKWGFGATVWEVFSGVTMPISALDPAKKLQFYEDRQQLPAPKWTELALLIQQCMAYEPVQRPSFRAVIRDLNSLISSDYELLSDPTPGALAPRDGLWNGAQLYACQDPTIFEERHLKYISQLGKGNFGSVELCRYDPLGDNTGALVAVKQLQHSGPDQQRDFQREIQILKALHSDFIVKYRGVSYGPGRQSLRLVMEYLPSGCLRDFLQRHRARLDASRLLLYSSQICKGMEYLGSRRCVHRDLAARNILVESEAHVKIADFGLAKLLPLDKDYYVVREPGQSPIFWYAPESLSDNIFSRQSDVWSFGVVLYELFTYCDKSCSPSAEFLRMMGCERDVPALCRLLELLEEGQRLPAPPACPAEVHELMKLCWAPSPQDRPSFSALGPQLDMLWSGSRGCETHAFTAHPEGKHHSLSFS
Protocol: The assays were performed according to manufacturer's protocols, except that prior to the kinase reaction they were pre-incubated for 2 hours at 4° C., in order to be able to assay for time-dependent inhibition.
In addition to the compound, each 10 μL JAK3 kinase reaction contained 0.43-1.89 ng JAK3 and 2 μM peptide substrate in 50 mM HEPES (pH 7.5), 0.01% BRIJ-35, 10 mM MgCl2 and 1 mM EGTA. The kinase reaction was allowed to proceed for 1 hour.

[1] = tested on: Interleukin 4/STAT6-STAT6-bla RA1; test: Interleukin 4/STAT6-STAT6-bla RA1 inhibition (IL-4-stimulated STAT6 activity in Ramos cells); format: cell-based; settings: Homo sapiens, Ramos; Table 1, 6th column; read-out: Cell based IL4 stimulation IC50
Protocol: The inhibition of Interleukin 4/STAT6-STAT6-bla RA1 (activated by IL-4) by several compounds was determined using the Screening Protocol and Assay Conditions (Invitrogen, Madison, Wis.). The assays were performed according to manufacturer's protocols. Example 4, Cell-line Specific Protocols IL-4-stimulated STAT6 activity in Ramos cells for details.
Mechanism-based inhibition assays using compound 7A (Table 1) were performed using GeneBLAzer® Technology (Invitrogen Corporation), according to manufacturer specifications. […] In this state, excitation of the coumarin results in fluorescence resonance energy transfer to the fluorescein moiety and emission of green light. […] Excitation of the coumarin in the presence of Beta-lactamase activity results in a blue fluorescence signal. […]
An activator assay screen was run to obtain the EC80 concentration of the known activator to add in step 3. • 1. […] 4 μL of the EC80 concentration of activator, as determined in an Activator assay, was added to all wells containing compound and known inhibitor to bring the final assay volume to 40 μL. • 4. […] The assay plate was read on a fluorescence plate reader (Tecan Safire) and the data is analyzed. […]
STAT6-bla RA1 cells were thawed. […] The plate was read on a fluorescence plate reader.

physchem = settings: pH 7.4, aqueous buffer, thermodynamic from solid
Protocol: The test concentration was 100 μM (0% of DMSO for test compounds, 1% of DMSO for reference compounds). The test system was a 100 mM phosphate buffer (pH 7.4). Sample size was duplicates (n=2) and the bioanalytical method was LC-UV (Agilent-1200). Mobile phase A: H2O-1% TFA, B: MeOH-1% TFA; column Boston Symmetrix ODS-H (2.1×50 mm, 5 μm); LC conditions 0.4 mL/Min.
Assay Procedure • 1. For reference compounds: • Add 8 μL of 10 mM DMSO stock solution into 792 μL of 100 mM phosphate buffer (n=2). Final conc.=100 μM (1% of DMSO)
For test compounds: • Add 8 μL of 10 mM DMSO stock solution into the tubes (n=2). • Dry the samples under nitrogen. • Add 800 μL of 100 mM phosphate buffer into the tubes. Final conc.=100 μM (0% of DMSO) • 2. Sample tubes are shaken for 1 hour (1000 rpm) at room temperature and 37° C. • 3. Samples are centrifuged (10 min-12000 rpm) to precipitate un-dissolved particles. • 4. Supernatants are transferred to new tubes • 5. Concentrations of the supernatants after centrifugation are determined by LC-UV detection.

O=C(c1cc(-c2csc(-c3ccccc3)n2)c[nH]1)N1CCCC1 [11A]
Ki (JAK3): 1100 to 10000 nM | IC50 [1]: 110 to 1000 nM

CC(=O)N1CCN(c2ccc(OCC3COC(Cn4ccnc4)(c4ccc(Cl)cc4Cl)O3)cc2)CC1 (centres unmarked) [Ketoconazole, reference compound]
solubility at 1 h (physchem; Solubility (μM) Mean): 15.9 µM (≈ 8.45 µg/mL) | solubility at 1 h (physchem; Solubility in PBS): 15.9 µM (≈ 8.45 µg/mL)

CC(C)NCC(O)COc1cccc2ccccc12 (centres unmarked) [Propranolol, reference compound]
solubility at 1 h (physchem; Solubility (μM) Mean, kinetic solubility, 100 mM phosphate buffer (pH 7.4), test concentration 100 μM, n=2, LC-UV): > 100 µM | solubility at 1 h (physchem; Solubility in PBS, 100 mM phosphate buffer pH 7.4, test concentration 100 μM): ~100 µM (≈ 25.9 µg/mL)

O=C(CN1CCOCC1)Nc1cccc(-c2nc(-c3c[nH]c(C(=O)N4CCCC4)c3)cs2)c1 [7A (sample 1), 2-morpholino-N-(3-(4-(5-(pyrrolidine-1-carbonyl)-1H-pyrrol-3-yl)thiazol-2-yl)phenyl)acetamide]
solubility at 1 h (physchem; Solubility (μM) Mean): 5.9 µM (≈ 2.75 µg/mL) | solubility at 1 h (physchem; Solubility in PBS): < 10 µM
